# Marks after values point to notes of the source that are not given here.
# How the values were obtained:
# iNOS vs nNOS = conditions: cited from earlier work
# [1] = system: neonatal mouse cardiac myocytes; format: cell-based; conditions: for effect of channel blocker on the protective effect of sildenafil: 5-hydroxydecanoate 100 μM, HMR1098 30 μM
# Procedure: Neonatal mouse myocytes in culture are incubated with 0.5–5 μM of DOX (in the presence or absence of 1 μM sildenafil) for 18 hours. The cells are then incubated with drug free growth medium for an additional 24 hours. Cytotoxicity of DOX is quantitatively assessed by measuring the percentage of cells killed and the amount of creatine kinase (CK) released into the media. In addition, a trypan blue exclusion assay and propidium iodide nuclear stain are used to quantitate cell death. Since DOX induces cardiomyopathy through the release of reactive oxygen species, lipid peroxidation in the cells is also measured as an index of oxidative damage.
# Neonatal mouse cardiac myocyte cultures are used for membrane potential studies. Cells in culture are treated with 0.5–5 μM of DOX (in the presence or absence of 1 μM sildenafil) for 18 hours. The cells are then incubated with drug free growth medium for an additional 24 hours. Additional groups are included where the cells are treated with a mitoKATP channel blocker (5-hydroxydecanoate, 100 μM), surface channel blocker (HMR1098, 30 μM) or cyclosporine, a mitochondrial membrane potential (Ψm) blocker (5 μM). For assessment of apoptosis, the TUNEL assay is used, which is an accurate method for distinguishing apoptosis from necrosis by specifically detecting DNA cleavage and chromatin condensation characteristic of apoptosis. Additionally, positive TUNEL staining directly correlates with the more typical biochemical and morphological aspects of apoptosis. Since an understanding of cell morphology is critical for data interpretation, apoptotic morphology is simultaneously assessed according to accepted scientific criteria previously described (Nor-Avi, 1999). The in situ staining of DNA strand breaks detected by the TUNEL assay along with subsequent morphological observation via epifluorescent, confocal, and electron microscopy, provides significant and reliable data regarding the identification of apoptotic cells, even in tissue samples where apoptosis represents a small segment of the population (Manning 1994). In addition, several other key indicators of apoptosis including annexin-V, cytosolic cytochrome c, caspase 3, caspase 8, as well as poly (ADP-ribose) polymerase cleavage in these groups, are measured. Mitochondrial membrane potential (Ψm) using a fluorescent indicator probe, JC-1 (Molecular Probes, Eugene, Oreg.) is measured.
# [2] = system: rabbit heart, ischemia/reperfusion injury; assay: In situ rabbit model of myocardial infarction (30 min coronary occlusion, 180 min reperfusion), infarct size by TTC staining; format: in vivo; conditions: control rabbits, 5-HD 5 mg/kg IV 10 min prior to ischemia
# [3] = Systemic hemodynamics (blood pressure, heart rate, rate pressure product) in rabbits; format: in vivo, rabbit; conditions: 5-HD 5 mg/kg IV 10 min prior to ischemia, control rabbits
# [4] = system: DOX-related cardiac complications; conditions: clinical use; cited from earlier work
# [5] = system: mouse heart, global I-R injury; assay: Isolated perfused mouse heart (Langendorff), 20 min global ischemia and 30 min reperfusion after in vivo treatment; conditions: saline+1400W; 1400W 10 mg/kg IP 30 minutes before I-R
# Procedure: Adult male outbred ICR mice were supplied by Harlan Inc (Indianapolis, Ind.). Viagra pills (Pfizer Inc) were ground into powder and dissolved in saline. The drug solution was filtered (0.45-μm pore size) before intraperitoneal injection. 1400W, an iNOS inhibitor, was obtained from Alexis. We used an isolated perfused mouse heart model subjected to 20 minutes of global ischemia and 30 minutes of reperfusion (Langendorff mode). Myocardial I-R injury was assessed by measuring infarct size, contractile function, and coronary flow as described previously (Xi, 1999). Twenty-eight mice were randomized into the following 4 groups: (n=6 to 9 per group): (1) saline (0.15 mL IP), (2) sildenafil (0.7 mg/kg IP, equivalent to 50 mg Viagra pill used for patients with erectile dysfunction, given 24 hours before I-R), (3) sildenafil+1400W (10 mg/kg IP, 14 given 30 minutes before I-R), and (4) saline+1400W. Measurement of NOS Isoforms Mice were treated with sildenafil (0.7 mg/kg IP), and their hearts were removed at 15, 30, and 45 minutes and 1, 2, 3, 4, and 24 hours after injection (n=3 per group). Three nontreated hearts were used as controls. Tissue samples were ground under liquid nitrogen and homogenized with TRI Reagent (Molecular Research Center) for extracting total RNA, which was reverse-transcribed into cDNA at 50° C. for 30 minutes using a OneStep reverse transcription (RT)-polymerase chain reaction (PCR) kit from Qiagen. The oligonucleotide primers were synthesized on the basis of published sequences for murine iNOS, eNOS, and GAPDH15 (Integrated DNA Technology). The RT-PCR products were electrophoresed on 1.5% Trisacetate-EDTA agarose gel. The target bands were identified on the basis of their specific size using DNA standards. iNOS and eNOS proteins were measured by Western blots as described previously. 13 In brief, triplicate heart samples were collected 24 hours after saline or sildenafil injection and homogenized in ice-cold RIPA buffer (Upstate Biotechnology). The homogenate was centrifuged at 10,000 g for 10 minutes at 4° C., and supernatant was recovered as the total cellular protein. Total protein (60 μg) from each sample was separated by SDS-PAGE on 10% acrylamide gels, transferred to a polyvinylidine difluoride membrane, and then blocked with 5% nonfat dry milk in Tris-buffered saline. The membrane was subsequently incubated with a rabbit polyclonal antibody (dilution 1:500, Santa Cruz) reacting specifically to iNOS, eNOS, or actin. The secondary antibody was a horseradish peroxidase-conjugated anti-rabbit IgG (1:1000 dilution, Amersham). The membranes were developed using enhanced chemiluminescence and exposed to x-ray film. The mRNA and protein expression were quantified by scanning each of the RT-PCR or Western blot band using a densitometer (Bioquant 98). […]
smiles,measurement,setting,value
"CSC(N)=NCCC[C@H](N)C(=O)O [SMT, S-methyl-L-thiocitrulline]",selectivity for iNOS vs nNOS,iNOS vs nNOS,approximately 40 fold
CNC(=S)NS(=O)(=O)c1cc(CCNC(=O)c2cc(Cl)ccc2OC)ccc1OC [HMR1098],effect of channel blocker on the protective effect of sildenafil,[1],not by HMR1098
"CCCCCC(O)CCCC(=O)O (stereo not shown) [5-HD, 5-hydroxydecanoate]",infarct size,[2],33.5±1.9 % of risk area
same,HR,[3]; 30-min Ischemia,185 ± 8 beats/min
same,MAP,[3]; 30-min Ischemia,95 ± 5^a mmHg
same,RPP (systolic arterial pressure × HR),[3]; 30-min Ischemia,19215 ± 999
same,HR,[3]; Baseline,"171 ± 13^d,e beats/min"
same,MAP,[3]; Baseline,120 ± 4 mmHg
same,RPP (systolic arterial pressure × HR),[3]; Baseline,22477 ± 1849
same,HR,[3]; Preischemia,178 ± 13 beats/min
same,MAP,[3]; Preischemia,110 ± 6 mmHg
same,RPP (systolic arterial pressure × HR),[3]; Preischemia,20977 ± 1373
same,HR,[3]; Reperfusion (60 min),162 ± 8 beats/min
same,MAP,[3]; Reperfusion (60 min),97 ± 5^a mmHg
same,RPP (systolic arterial pressure × HR),[3]; Reperfusion (60 min),17050 ± 1132
same,HR,[3]; Reperfusion (120 min),160 ± 8 beats/min
same,MAP,[3]; Reperfusion (120 min),91 ± 5^a mmHg
same,RPP (systolic arterial pressure × HR),[3]; Reperfusion (120 min),15770 ± 984^a
same,HR,[3]; Reperfusion (180 min),160 ± 7 beats/min
same,MAP,[3]; Reperfusion (180 min),91 ± 7^a mmHg
same,RPP (systolic arterial pressure × HR),[3]; Reperfusion (180 min),16300 ± 1503^a
same,effect of channel blocker on the protective effect of sildenafil,[1],abolished
"CC(=N)NCCCC[C@H](N)C(=O)O.Cl [L-NIL, L-N-6-(1-iminoethyl)lysine hydrochloride]",selectivity for iNOS vs nNOS,iNOS vs nNOS,approximately 40 fold
"COc1cccc2c1C(=O)c1c(O)c3c(c(O)c1C2=O)C[C@@](O)(C(=O)CO)C[C@@H]3O[C@H]1C[C@H](N)[C@H](O)[C@H](C)O1 [DOX, Doxorubicin]","apoptosis indicators (TUNEL, cytochrome c translocation, caspase-3, PARP cleavage, Ψm dissipation)",[1]; 0.5–5 μM DOX for 18 hours,TUNEL positivity
same,"necrotic cell death (CK release, uptake of trypan blue)",[1]; 0.5–5 μM DOX for 18 hours,increased necrotic cell death
C[C@@H](CN1CC(=O)NC(=O)C1)N1CC(=O)NC(=O)C1 [dexrazoxane],reduction of DOX-related cardiac complications,[4],50%
CC(=N)NCc1cccc(CN)c1 [1400W],infarct size,[5],24.5±1.0%
same,selectivity for iNOS vs nNOS,iNOS vs nNOS,approximately 40 fold

# — US7091207B2, “Method of treating myocardial infarction with PDE-5 inhibitors” (Virginia Commonwealth University, priority 2002, dated 2006)
